# Measurements from patent publication US20060069021A1, “Compositions and methods for intranasal administration of inactive analogs of PTH or inactivated preparations of PTH or PTH analogs” (Nastech Pharmaceutical Company Inc., priority 2004, published 2006).
# Entries after “also recorded” stand apart in the source; their conditions may differ. Like-named read-outs stand apart in the source and are kept apart here. Ends that are not written are not given here.
# Legend:
# [1] = system: ovariectomized rat model; settings: cited from earlier work
# [2] = system: ciliary motility; settings: cited from earlier work
# [3] = system: Type II collagen production by human chondrocytes; assay: Cartilage growth model: human chondrocytes in alginate beads, type II collagen ELISA; type: cell-based
# Procedure: A. Approximately 3 million human chondrocyte cells (Cell Applications, Inc., San Diego, Calif.) encapsulated in alginate beads were received in 25 mL total volume of re-differentiated medium. Human chondrocytes in alginate beads produce their phenotypic markers such as aggrecan and type II collagen unlike in monolayer culture where chondrocytes lose their phenotypic characteristics and de-differentiate to fibroblast-like cells. Alginate based cell system was pursued to assess type II collagen expression as result of PTH dosing and therefore indication of any cartilage growth.
# B. The cell-containing alginate bead suspension was transferred from cell culture flask to 50 mL conical tubes. A volume of 500 μL (˜62,500 cells per well) suspension was dispensed per well in 24-well plates. Samples were added to each well and final volume was brought to one milliliter with appropriate growth media. Controls included cells treated with re-differentiated media as positive control (Cell Applications, Inc., San Diego, Calif.), cells treated with chondrocyte growth media (Cell Applications, Inc., San Diego, Calif.) and basal media (Cell Applications, Inc., San Diego, Calif.) as negative controls.
# C. Plates were swirled gently to allow homogenous mixture of each sample. Plates were placed in 37° C., 5% CO2 incubator. Human chondrocytes were grown for up to 12 days on longer. Appropriate growth media were replaced every second or third day. Alginate beads were prepared for type II collagen extraction on the last day of the experiment and extracted collagen was quantified using Native Type II Collagen Detection Kit (Chondrex Inc., Redmond Wash.). Pictures of cells immediately following the samples application and at several time points during the course of experiment were taken using the Olympus CK40 microscope and Nikon Cool Pix 4500 digital camera.
# D. A capture ELISA kit (Native Type II Collagen Detection Kit, Chondrex Inc.) was used to measure native type II collagen. For measuring glycosaminoglycans, the kit used was Blyscan Sulfated Glycosaminoglycan Assay kit (Accurate Chemical & Scientific Corp.).
# Next, the alginate-based cell system (cartilage growth model; refer to Example 2) was used to determine whether PTH dosing could stimulate chondrocytes to produce cartilage. […] Type II collagen is a major component of the extracelluar matrix of nasal cartilage and therefore was used as a molecular marker for cartilage growth in this assay.
# The cell-containing alginate beads were incubated in the presence of various test solutions for 12 days at 37° C., 5% CO2. After the incubation, the alginate beads were processed using an extraction method in order to quantify the production of type II collagen.
# [4] = rats, intraduodenal, with 1% (w/v) saline dispersion of polycarbophil; cited from earlier work
# [5] = anesthetized rats, cited from earlier work
# [6] = system: aminopeptidases; settings: cited from earlier work
# [7] = aqueous solution at physiologic pH; cited from earlier work
# [8] = system: human chondrocyte cell monolayer; assay: Cell proliferation model: human chondrocyte monolayer, MTT assay; type: cell-based; settings: MTT at t=0 and after 4 days at 37° C./5% CO2
# Procedure: A. Chondrocyte monolayers (Cell Applications, Inc., San Diego, Calif.) derived from normal human cartilage were adhered on to a 24-well plate and shipped following the first doubling. Approximately 16000 cells per well were expected at the time the cells were received. Two plates were treated identically with PTH and appropriate control samples. Controls included cells treated with chondrocyte growth media for positive control (Cell Applications, Inc., San Diego, Calif.) and cells treated with basal media for negative control (Cell Applications, Inc., San Diego, Calif.).
# B. After the cells are treated, one of the two plates was analyzed for cell viability (t=0 sample). The second plate was placed at 37° C., 5% CO2 incubator for 4 days, after which the plates were analyzed using the MTT assay.
# C. MTT is a cell-permeable tetrazolium salt which is reduced by mitochondrial dehydrogenase activity to an insoluble colored formazan by viable cells with intact mitochondrial function or by nonmitochondrial NAD(P)H dehydrogenase activity from cells capable of generating a respiratory burst. […] We have employed a MTT reagent kit prepared by MatTek Corp for their units as in indicator of cell proliferation.
# A human chondrocyte cell monolayer model was employed to examine cell proliferation (refer to Example 2). […]
molecule,measurement,setting,value
Ser Val Ser Glu Ile Gln Leu Met His Asn Leu Gly Lys His Leu Asn Ser Met Glu Arg Val Glu Trp Leu Arg Lys Lys Leu Gln Asp Val-NH2 (SVSEIQLMHNLGKHLNSMERVEWLRKKLQDV-NH2) [hPTH-(1-31)-NH2],restoration of bone loss,[1],fully active
2-alkyl-4-hydroxyquinolines [pyo compound],concentration producing ciliostasis / inhibiting ciliary motility,[2],50 µg/mL
calcitonin,type II collagen production,[3]; 20 μg calcitonin,no effect
same,type II collagen production,[3]; 200 μg calcitonin,no effect
"9-desglycinamide, 8-arginine vasopressin",increase of bioavailability compared to aqueous solution without polymer,[4],3-5 fold
human growth hormone: human growth hormone given nasally with or without N-acetyl-L-cysteine,nasal bioavailability of human growth hormone,[5]; with N-acetyl-L-cysteine (ACS),12.2%
same,nasal bioavailability of human growth hormone,[5]; without N-acetyl-L-cysteine,7.5%
CC(C)CC(N)B(O)O (stereo not drawn) [boro-leucine],effectiveness in enzyme inhibition relative to bestatin,[6],more than 100 times
same,effectiveness in enzyme inhibition relative to puromycin,[6],"more than 1,000 times"
CCN(CC)/[N+]([O-])=N/O.CCNCC [diethylamine/NO],rate (time) of NO release,[7],< 3 min
"NCCN(CCN)/[N+]([O-])=N/O [diethylenetriamine/NO (DETANO), diethylenetriamine/NO]",rate (time) of NO release,[7],approximately 20 hours
insulin-like growth factor I [IGF-I],type II collagen production,[3]; 5 μg IGF-I (positive control),greater than 1.2 pg per culture
"PTH: Parathyroid hormone peptide tested in Example 4; which form (1-84 or 1-34) is not stated (peptide, UniProt P01270 32-115, looked up, Parathyroid hormone) Parathyroid hormone: SVSEIQLMHNLGKHLNSMERVEWLRKKLQDVHNFVALGAPLAPRDAGSQRPRKKEDNVLVESHEKSLGEADKADVNVLTKAKSQ",chondrocyte proliferation (MTT assay),[8]; PTH in simple formulation (citrate buffer),did not stimulate chondrocyte proliferation
same,chondrocyte proliferation (MTT assay),[8]; PTH with permeation enhancers of Table 2,did not stimulate chondrocyte proliferation
same,type II collagen production,"[3]; 20 μg PTH in citrate buffer, 12 days at 37° C., 5% CO2",did not induce a substantial production of type II collagen
same,type II collagen production,"[3]; 20 μg PTH with permeation enhancers, 12 days",did not induce a substantial production of type II collagen
same,type II collagen production,"[3]; 200 μg PTH in simple formulation, 12 days",significant increase in type II collagen; also recorded: modest amounts of type II collagen production
same,type II collagen production,"[3]; high concentration of PTH (200 μg) with permeation enhancers, 12 days",essentially no production of type II collagen; also recorded: did not induce any cartilage growth
